System: 931267-113-T-J1-PDC multicell spheroid viability
Assay: Anticancer human tumor 931267-113-T-J1-PDC patient-derived colon adenocarcinoma cell line growth inhibition [PI3K]
Settings: for IC50: curve of first compound; for viability, T/C: stronger effect = lower value
How it was run: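 Stroma-containing spheroids: tumor line, pooled-donor HUVEC, hMSC. Treatments: targeted agents with PI3K inhibitors. Dosing: clinically relevant, half-log spacing, 10 microM ceiling without known Cmax. Read-out: cell viability.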

[1] = second compound 0.00316 µM, first compound 0.0316 µM
[2] = second compound 0.00316 µM, first compound 0.1 µM
[3] = second compound 0.00316 µM, first compound 0.316 µM
[4] = second compound 0.00316 µM, first compound 1 µM
[5] = second compound 0.00316 µM, first compound 3.16 µM
[6] = second compound 0.00316 µM, first compound 10 µM
[7] = second compound 0.01 µM, first compound 0.0316 µM
[8] = second compound 0.01 µM, first compound 0.1 µM
[9] = second compound 0.01 µM, first compound 0.316 µM
[10] = second compound 0.01 µM, first compound 1 µM
[11] = second compound 0.01 µM, first compound 3.16 µM
[12] = second compound 0.01 µM, first compound 10 µM
[13] = second compound 0.0316 µM, first compound 0.0316 µM
[14] = second compound 0.0316 µM, first compound 0.1 µM
[15] = second compound 0.0316 µM, first compound 0.316 µM
[16] = second compound 0.0316 µM, first compound 1 µM
[17] = second compound 0.0316 µM, first compound 3.16 µM
[18] = second compound 0.0316 µM, first compound 10 µM
[19] = second compound 0.1 µM, first compound 0.0316 µM
[20] = second compound 0.1 µM, first compound 0.1 µM
[21] = second compound 0.1 µM, first compound 0.316 µM
[22] = second compound 0.1 µM, first compound 1 µM
[23] = second compound 0.1 µM, first compound 3.16 µM
[24] = second compound 0.1 µM, first compound 10 µM
[25] = second compound 0.316 µM, first compound 0.0316 µM
[26] = second compound 0.316 µM, first compound 0.1 µM
[27] = second compound 0.316 µM, first compound 0.316 µM
[28] = second compound 0.316 µM, first compound 1 µM
[29] = second compound 0.316 µM, first compound 3.16 µM
[30] = second compound 0.316 µM, first compound 10 µM
[31] = second compound 1 µM, first compound 0.0316 µM
[32] = second compound 1 µM, first compound 0.1 µM
[33] = second compound 1 µM, first compound 0.316 µM
[34] = second compound 1 µM, first compound 1 µM
[35] = second compound 1 µM, first compound 3.16 µM
[36] = second compound 1 µM, first compound 10 µM
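Further: viability read 7 days after compound addition.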

## Cn1nccc1Nc1nccc(-c2ccn(C(CO)c3ccc(Cl)c(F)c3)c(=O)c2)n1 (stereo unspecified) + CC(Nc1ccc2c(c1)OCCn1cc(N3C(=O)OCC3C(F)F)nc1-2)C(N)=O
Second compound 0.00316 µM
  IC50: 8.42 µM
Second compound 0.01 µM
  IC50: 3.65 µM
Second compound 0.0316 µM
  IC50: 4.15 µM
Second compound 0.1 µM
  IC50: 2.89 µM
Second compound 0.316 µM
  IC50: 1.74 µM
Second compound 1 µM
  IC50: 1.09 µM
[1]
  viability, T/C: 96.7%
[2]
  viability, T/C: 98.6%
[3]
  viability, T/C: 88.6%
[4]
  viability, T/C: 81.2%
[5]
  viability, T/C: 64.5%
[6]
  viability, T/C: 47.4%
[7]
  viability, T/C: 99%
[8]
  viability, T/C: 92.4%
[9]
  viability, T/C: 97.2%
[10]
  viability, T/C: 79.9%
[11]
  viability, T/C: 52.3%
[12]
  viability, T/C: 37.2%
[13]
  viability, T/C: 99.5%
[14]
  viability, T/C: 91.5%
[15]
  viability, T/C: 82.6%
[16]
  viability, T/C: 74.3%
[17]
  viability, T/C: 54.4%
[18]
  viability, T/C: 33.1%
[19]
  viability, T/C: 102%
[20]
  viability, T/C: 86.1%
[21]
  viability, T/C: 86.1%
[22]
  viability, T/C: 69.8%
[23]
  viability, T/C: 46.5%
[24]
  viability, T/C: 25.9%
[25]
  viability, T/C: 91.7%
[26]
  viability, T/C: 76.2%
[27]
  viability, T/C: 73%
[28]
  viability, T/C: 61.8%
[29]
  viability, T/C: 38.6%
[30]
  viability, T/C: 18%
[31]
  viability, T/C: 72.8%
[32]
  viability, T/C: 76.5%
[33]
  viability, T/C: 68.8%
[34]
  viability, T/C: 51%
[35]
  viability, T/C: 29.2%
[36]
  viability, T/C: 17.7%

## CC(Cn1ccc(-c2ccc(C#N)c(Cl)c2)n1)NC(=O)c1cc(C(C)O)[nH]n1 (stereo unspecified) + COc1c(OCCCN2CCOCC2)ccc2c3n(c(=NC(=O)c4cnc(N)nc4)nc12)CCN3
Second compound 0.00316 µM
  IC50: > 10 µM
Second compound 0.01 µM
  IC50: > 10 µM
Second compound 0.0316 µM
  IC50: > 10 µM
Second compound 0.1 µM
  IC50: > 10 µM
Second compound 0.316 µM
  IC50: < 0.0316 µM
Second compound 1 µM
  IC50: < 0.0316 µM
[1]
  viability, T/C: 95.4%
[2]
  viability, T/C: 96.7%
[3]
  viability, T/C: 104%
[4]
  viability, T/C: 99.4%
[5]
  viability, T/C: 99.8%
[6]
  viability, T/C: 104%
[7]
  viability, T/C: 89.7%
[8]
  viability, T/C: 102%
[9]
  viability, T/C: 97.8%
[10]
  viability, T/C: 100%
[11]
  viability, T/C: 92.5%
[12]
  viability, T/C: 85.9%
[13]
  viability, T/C: 91.8%
[14]
  viability, T/C: 96.4%
[15]
  viability, T/C: 78.6%
[16]
  viability, T/C: 82.5%
[17]
  viability, T/C: 78.4%
[18]
  viability, T/C: 70.5%
[19]
  viability, T/C: 68.8%
[20]
  viability, T/C: 72.5%
[21]
  viability, T/C: 64.9%
[22]
  viability, T/C: 65.4%
[23]
  viability, T/C: 65.3%
[24]
  viability, T/C: 63.1%
[25]
  viability, T/C: 47.5%
[26]
  viability, T/C: 44.1%
[27]
  viability, T/C: 45.3%
[28]
  viability, T/C: 42.4%
[29]
  viability, T/C: 47.7%
[30]
  viability, T/C: 37.9%
[31]
  viability, T/C: 32.5%
[32]
  viability, T/C: 34.4%
[33]
  viability, T/C: 30.9%
[34]
  viability, T/C: 32.5%
[35]
  viability, T/C: 34.5%
[36]
  viability, T/C: 29.5%

## CCCS(=O)(=O)Nc1ccc(F)c(C(=O)c2c[nH]c3ncc(-c4ccc(Cl)cc4)cc23)c1F + CC(Nc1ncnc2nc[nH]c12)c1cc2cccc(Cl)c2c(=O)n1-c1ccccc1
Second compound 0.0316 µM
  IC50: 6.07 µM
Second compound 0.1 µM
  IC50: 6.04 µM
Second compound 0.316 µM
  IC50: 6.07 µM
Second compound 1 µM
  IC50: 5.96 µM
Second compound 3.16 µM
  IC50: 5.92 µM
Second compound 10 µM
  IC50: 5.69 µM
[13]
  viability, T/C: 102%
[14]
  viability, T/C: 101%
[15]
  viability, T/C: 104%
[16]
  viability, T/C: 125%
[17]
  viability, T/C: 112%
[18]
  viability, T/C: 4.93%
[19]
  viability, T/C: 101%
[20]
  viability, T/C: 111%
[21]
  viability, T/C: 103%
[22]
  viability, T/C: 107%
[23]
  viability, T/C: 119%
[24]
  viability, T/C: 4.62%
[25]
  viability, T/C: 107%
[26]
  viability, T/C: 103%
[27]
  viability, T/C: 109%
[28]
  viability, T/C: 122%
[29]
  viability, T/C: 110%
[30]
  viability, T/C: 3.9%
[31]
  viability, T/C: 102%
[32]
  viability, T/C: 93.9%
[33]
  viability, T/C: 113%
[34]
  viability, T/C: 110%
[35]
  viability, T/C: 109%
[36]
  viability, T/C: 4.52%
Second compound 3.16 µM, first compound 0.0316 µM
  viability, T/C: 99.2%
Second compound 3.16 µM, first compound 0.1 µM
  viability, T/C: 99.9%
Second compound 3.16 µM, first compound 0.316 µM
  viability, T/C: 102%
Second compound 3.16 µM, first compound 1 µM
  viability, T/C: 116%
Second compound 3.16 µM, first compound 3.16 µM
  viability, T/C: 104%
Second compound 3.16 µM, first compound 10 µM
  viability, T/C: 5.3%
Second compound 10 µM, first compound 0.0316 µM
  viability, T/C: 92.3%
Second compound 10 µM, first compound 0.1 µM
  viability, T/C: 95.2%
Second compound 10 µM, first compound 0.316 µM
  viability, T/C: 99.6%
Second compound 10 µM, first compound 1 µM
  viability, T/C: 108%
Second compound 10 µM, first compound 3.16 µM
  viability, T/C: 97.7%
Second compound 10 µM, first compound 10 µM
  viability, T/C: 4.17%

From PubChem BioAssay AID1963970 (Molecular Pharmacology Branch, DTP, NCI, 2024)
